Laboratory results taken from ChEMBL document CHEMBL5154733, “Targeting NLRP3 signaling by a novel-designed sulfonylurea compound for inhibition of microglial inflammation” (Bioorg Med Chem, 2022).
Calls of active or inactive are those of the source. The rule behind the calls is not given here.

Assays:
[1] = Stabilization of microglia morphology in mouse N9 cells assessed as resting morphology level at 2.8 uM incubated for 24 hrs dosed 24 hrs after LPS stimulation by (reference value: 18%); type: functional
[2] = system: N9; experiment: Inhibition of LPS-induced Caspase-1 expression in mouse N9 cells at 2.8 uM incubated for 24 hrs dosed 24 hrs after LPS stimulation by FLICA 660 Caspase-1 assay; type: functional
[3] = system: Brain; experiment: Suppression of microglia activation in C57BL/6 mouse brain assessed as maintenance of microglia morphology by measuring Iba1 positive cells in cerebral cortex area at 55 mg/kg, ip by immunofluorescence staining; type: functional, organism-based
[4] = Inhibition of LPS-induced of NLRP3 expression in mouse N9 cells assessed as NLRP3 expression level at 1.4 uM incubated for 24 hrs dosed 24 hrs after LPS stimulation by Quantitative PCR assay; type: functional; parameters: scale not given: the % may be the effect or the level left
[5] = system: N9; experiment: Inhibition of LPS-induced of NLRP3 expression in mouse N9 cells at 0.7 to 2.8 uM incubated for 24 hrs dosed 24 hrs after LPS stimulation by Quantitative PCR assay; type: functional; details: dose 0.7-2.8 µM, DDE = dose-dependent effect
[6] = system: N9; experiment: Inhibition of LPS-induced of iNOS expression in mouse N9 cells at 2.8 uM incubated for 24 hrs dosed 24 hrs after LPS stimulation by Western blot; type: functional
[7] = Inhibition of LPS-induced of IL-1beta expression in mouse N9 cells assessed as IL-1beta level at 2.8 uM incubated for 24 hrs dosed 24 hrs after LPS stimulation by ELISA (reference value: 100 pg/ml); type: functional
[8] = system: N9; experiment: Inhibition of LPS-induced of phagocytosis in mouse N9 cells assessed as decrease in FAM positive cell number at 2.8 uM incubated for 24 hrs dosed 24 hrs after LPS stimulation by FAM-labeled fluorescent Abeta-42 peptide based fluorescence assay; type: functional
[9] = system: N9; experiment: Inhibition of LPS-induced of NLRP3 expression in mouse N9 cells at 2.8 uM incubated for 24 hrs dosed 24 hrs after LPS stimulation by Western blot; type: functional
[10] = Inhibition of LPS-induced of IL-1beta expression in mouse N9 cells assessed as relative IL-1beta expression at 2.8 uM incubated for 24 hrs dosed 24 hrs after LPS stimulation by Quantitative PCR assay (reference value: 7 fold); type: functional
[11] = system: Brain; experiment: Suppression of microglia activation in C57BL/6 mouse brain assessed as maintenance of microglia morphology by measuring Iba1 positive cell number in cerebral cortex positive cells in cerebral cortex area at 55 mg/kg, ip by immunofluorescence staining; type: functional, organism-based
[12] = Inhibition of LPS-induced of NLRP3 expression in mouse N9 cells assessed as NLRP3 expression level at 0.7 uM incubated for 24 hrs dosed 24 hrs after LPS stimulation by Quantitative PCR assay; type: functional; parameters: scale not given: the % may be the effect or the level left
[13] = Toxicity in mouse N9 cells assessed as effect on cell viability at 0.35 to 5.6 uM incubated for 24 hrs by MTT assay; type: cell-based; details: n9, 24 h, dose 0.35-5.6 µM
[14] = system: N9; experiment: Inhibition of LPS-induced of TNF-alpha expression in mouse N9 cells at 2.8 uM incubated for 24 hrs dosed 24 hrs after LPS stimulation by ELISA; type: functional
[15] = system: N9; experiment: Inhibition of LPS-induced of nitric oxide production in mouse N9 cells at 2.8 uM incubated for 24 hrs dosed 24 hrs after LPS stimulation by DAF-FM dye based fluorescence assay; type: functional
[16] = system: N9; experiment: Inhibition of LPS-induced of phagocytosis in mouse N9 cells assessed as decrease in intracellular FAM-Abeta42 fluorescent intensity at 2.8 uM incubated for 24 hrs dosed 24 hrs after LPS stimulation by FAM-labeled fluorescent Abeta-42 peptide based fluorescence assay; type: functional
[17] = Inhibition of LPS-induced of NLRP3 expression in mouse N9 cells assessed as NLRP3 expression level at 2.8 uM incubated for 24 hrs dosed 24 hrs after LPS stimulation by Quantitative PCR assay; type: functional; parameters: scale not given: the % may be the effect or the level left

O=C1N(c2cncnc2)CCCN1S(=O)(=O)c1ccc(C(F)(F)F)cc1
Activity [1]: 65% | inhibition [2]: Active | Activity [3]: Active | Activity [4]: 220% | inhibition [5]: Dde | inhibition [6]: Active | Activity [7]: 70 pg/mL | inhibition [8]: Active | inhibition [9]: Active | fold change (FC) [10]: 2 | Activity [11]: Active | Activity [12]: 370% | Activity [13]: Non-Toxic | inhibition [14]: Active | inhibition [15]: Active | inhibition [16]: Active | Activity [17]: 100%
